Results: ChEMBL document CHEMBL3879884, “Compounds and therapeutical use thereof” (2005)
Active and inactive are the calls of the source. No cut-off for these calls is given here.

Tests used:
[1] = Cytotoxicity against human DLD cells assessed as inhibition of cell proliferation after 48 hrs by CellTiter-Glo assay; type: functional
[2] = biological target: T1, DNA topoisomerase II (Homo sapiens) (UniProt P11388+Q02880); assay: Binding affinity to p170 form of human DNA topoisomerase-2 at 50 nM in presence of UV irradiation after 60 mins by agarose gel electrophoresis; type: protein assay; details: tested as the 3H-labelled form
[3] = biological target: T1, DNA topoisomerase II (Homo sapiens); assay: Inhibition of DNA topoisomerase-2 (unknown origin) assessed as decrease in relaxation of supercoiled pRYG DNA at 12.5 to 100 uM after 50 mins by ethidium bromide staining-based agarose gel electrophoresis; type: protein assay
Escherichia coli = assay: Binding affinity to Escherichia coli supercoiled pRYG DNA assessed as reduction of DNA topoisomerase-1-mediated relaxation of supercoiled DNA at 1 to 10 uM by agarose gel electrophoresis
[4] = biological target: T1, DNA topoisomerase II (Homo sapiens); assay: Inhibition of DNA topoisomerase-2 (unknown origin) assessed as decrease in relaxation of supercoiled pRYG DNA at 1 to 10 uM after 50 mins by agarose gel electrophoresis; type: protein assay

Q: For `COc1ccc(Nc2nc(Cl)nc3ccccc23)cc1`, which GI50 [1] is on record?
A: Its GI50 is over 10 µM.

Q: Which Activity [2] does the source give for `Cc1nc(N(C)c2ccc(N=[N+]=[N-])cc2)c2ccccc2n1` here?
A: The Activity was “Active”.

Q: Which inhibition [3] does the source give for `COc1ccc(N(C)c2nc(Cl)nc3ccccc23)cc1` here?
A: Its inhibition is “Active”.

Q: For `CC[n+]1c(-c2ccccc2)c2cc(N)ccc2c2ccc(N)cc21`, which Activity (Escherichia coli) is on record?
A: Its Activity is “Active”.

Q: What about the inhibition [4] of the same compound?
A: The inhibition was “Active”.
